# Where two headings read alike, the source gives them in different places.
# Target: BTK (Homo sapiens (Human), UniProt Q06187)
# Assay: In vitro BTK kinase assay: BTK-POLYGAT-LS ASSAY
# [1] = read-out: IC50 (10 uM ATP), 10 uM ATP, in vitro Btk kinase assay, Example 41
# Sequence of BTK (Q06187 whole entry): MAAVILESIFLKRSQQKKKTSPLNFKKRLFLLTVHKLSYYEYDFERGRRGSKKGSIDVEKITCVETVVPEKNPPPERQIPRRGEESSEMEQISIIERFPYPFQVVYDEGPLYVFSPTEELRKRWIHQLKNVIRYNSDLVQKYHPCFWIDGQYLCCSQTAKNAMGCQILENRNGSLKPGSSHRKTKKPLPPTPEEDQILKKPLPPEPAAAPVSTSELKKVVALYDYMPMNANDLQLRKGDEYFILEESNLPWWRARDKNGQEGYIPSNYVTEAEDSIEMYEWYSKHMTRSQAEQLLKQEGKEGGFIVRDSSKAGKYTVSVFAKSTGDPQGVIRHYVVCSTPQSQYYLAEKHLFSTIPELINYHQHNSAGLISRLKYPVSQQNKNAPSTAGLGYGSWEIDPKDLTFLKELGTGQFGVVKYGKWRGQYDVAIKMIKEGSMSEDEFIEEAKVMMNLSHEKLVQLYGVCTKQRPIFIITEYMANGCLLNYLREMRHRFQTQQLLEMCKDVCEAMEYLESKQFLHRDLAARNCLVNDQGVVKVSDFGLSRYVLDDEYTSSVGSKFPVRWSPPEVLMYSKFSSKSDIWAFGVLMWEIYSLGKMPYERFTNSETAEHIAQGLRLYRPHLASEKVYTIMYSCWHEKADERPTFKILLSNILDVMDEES
Compound,IC50 [1],IC50
"FC(F)(F)c1cccnc1Nc1cccc(C2CCCN(c3ncnc4[nH]ccc34)C2)c1 (stereo not drawn) [compound 143, N-(3-(1-(7H-pyrrolo[2,3-d]pyrimidin-4-yl)piperidin-3-yl)phenyl)-3-(trifluoromethyl)pyridin-2-amine]",> 10000 nM,–
"N#Cc1c(N)ncnc1N1CCCC(c2ccc(OC(F)(F)F)c(NC(=O)C3CCCCC3)c2)C1 (stereo not drawn) [compound 144, N-(5-(1-(6-amino-5-cyanopyrimidin-4-yl)piperidin-3-yl)-2-(trifluoromethoxy)phenyl)cyclohexanecarboxamide]",–,1000 to 10000 nM
N#Cc1c(N)ncnc1N1CCCC(c2ccc(OC(F)(F)F)c(NC(=O)c3ccccc3Cl)c2)C1 (stereo not drawn) [compound 145],–,100 to 999 nM
O=C(Nc1cccc(C2CCCN(c3ncnc4[nH]ccc34)C2)c1)Nc1c(F)cccc1N1CCCC1 (stereo not drawn) [compound 146],< 100 nM,–
O=C(Nc1cccc(C2CCCN(c3ncnc4[nH]ccc34)C2)c1)Nc1ccc(F)cc1N1CCCC1 (stereo not drawn) [compound 147],< 100 nM,–
O=C(Nc1cccc(C2CCCN(c3ncnc4[nH]ccc34)C2)c1)Nc1ccccc1N1C[C@@H](O)[C@@H](O)C1 (stereo partly drawn) [compound 148],< 100 nM,–
O=C(Nc1cccc(C2CCCN(c3ncnc4[nH]ccc34)C2)c1)Nc1ccccc1N1CC[C@@H](O)C1 (stereo partly drawn) [compound 149],< 100 nM,–
O=C(Nc1cccc(C2CCCN(c3ncnc4[nH]ccc34)C2)c1)Nc1ccccc1N1C[C@H](O)[C@@H](O)C1 (stereo partly drawn) [compound 150],< 100 nM,–
CC(C)c1ccccc1NC(=O)Nc1cccc(C2CCCN(c3ncnc4[nH]ccc34)C2)c1 (stereo not drawn) [compound 151],< 100 nM,–
O=C(Nc1cccc(C2CCCN(c3ncnc4[nH]ccc34)C2)c1)Nc1ccccc1N1CCC[C@H]1CO (stereo partly drawn) [compound 152],< 100 nM,–
CC(C)c1cccc(C(C)C)c1NC(=O)Nc1cccc(C2CCCN(c3ncnc4[nH]ccc34)C2)c1 (stereo not drawn) [compound 154],< 100 nM,–
O=C(Nc1cccc(C2CCCN(c3ncnc4[nH]ccc34)C2)c1)Nc1ccccc1N1CC[C@H](O)C1 (stereo partly drawn) [compound 155],< 100 nM,–
CC(C)(C)c1ccccc1NC(=O)Nc1cccc([C@H]2CCCN(c3ncnc4[nH]ccc34)C2)c1 [compound 156],< 100 nM,–
CO[C@H]1CCN(c2ccccc2NC(=O)Nc2cccc(C3CCCN(c4ncnc5[nH]ccc45)C3)c2)C1 (stereo partly drawn) [compound 157],< 100 nM,–
O=C(Nc1cccc(C2CCCN(c3ncnc4[nH]ccc34)C2)c1)Nc1ccccc1N1C[C@@H](O)[C@H](O)C1 (stereo partly drawn) [compound 158],–,100 to 999 nM
C[C@@H]1CCCN1c1ccccc1NC(=O)Nc1cccc(C2CCCN(c3ncnc4[nH]ccc34)C2)c1 (stereo partly drawn) [compound 159],–,100 to 999 nM
O=C(Nc1cccc(C2CCCN(c3ncnc4[nH]ccc34)C2)c1)Nc1cc(F)ccc1N1CCCC1 (stereo not drawn) [compound 160],–,100 to 999 nM
O=C(Nc1cccc(C2CCCN(c3ncnc4[nH]ccc34)C2)c1)Nc1c(Cl)cccc1C(F)(F)F (stereo not drawn) [compound 161],–,100 to 999 nM
O=C(Nc1cccc(C2CCCN(c3ncnc4[nH]ccc34)C2)c1)Nc1ccccc1N1CC[C@@H](F)C1 (stereo partly drawn) [compound 162],–,100 to 999 nM
O=C(Nc1cccc(C2CN(c3ncnc4[nH]ccc34)CCC2CO)c1)Nc1ccccc1N1CCCC1 (stereo not drawn) [compound 163],–,100 to 999 nM
N[C@@H]1CCN(c2ccccc2NC(=O)Nc2cccc(C3CCCN(c4ncnc5[nH]ccc45)C3)c2)C1 (stereo partly drawn) [compound 164],–,100 to 999 nM
O=C(Nc1cccc(C2CCCN(c3ncnc4[nH]ccc34)C2)c1)Nc1ccccc1N1CCOCC1 (stereo not drawn) [compound 165],–,100 to 999 nM
O=C(NCC1CCCC1)Nc1cccc(C2CCCN(c3ncnc4[nH]ccc34)C2)c1 (stereo not drawn) [compound 166],–,100 to 999 nM
CC(C)(C)c1ccccc1NC(=O)Nc1cccc(C2CCCN(c3ncnc4[nH]ccc34)C2)c1 (stereo not drawn) [compound 167],–,100 to 999 nM

Compound,IC50 [1],IC50
O=C(Nc1cccc(C2CCCN(c3ncnc4[nH]ccc34)C2)c1)Nc1ccccc1N1CCC(F)(F)C1 (stereo not drawn) [compound 168],–,100 to 999 nM
N[C@H]1CCN(c2ccccc2NC(=O)Nc2cccc(C3CCCN(c4ncnc5[nH]ccc45)C3)c2)C1 (stereo partly drawn) [compound 169],–,100 to 999 nM
O=C(Nc1cccc(C2CCCN(c3ncnc4[nH]ccc34)C2)c1)Nc1ccccc1N1CCCC1=O (stereo not drawn) [compound 170],–,100 to 999 nM
O=C(Nc1cccc(C2CCN(c3ncnc4[nH]ccc34)C2)c1)Nc1ccccc1N1CCCC1 (stereo not drawn) [compound 171],–,100 to 999 nM
O=C(Nc1cccc(C2CCCN(c3ncnc4[nH]ccc34)C2)c1)Nc1ccccc1C(F)(F)F (stereo not drawn) [compound 173],–,100 to 999 nM
O=C(Nc1ccccc1)Nc1cccc(C2CCCN(c3ncnc4[nH]cnc34)C2)c1 (stereo not drawn) [compound 174],100 to 999 nM,–
O=C(Nc1cccc(C2CCCN(c3ncnc4[nH]ccc34)C2)c1)Nc1ccccc1N1CCCCC1 (stereo not drawn) [compound 175],–,100 to 999 nM
CO[C@@H]1CCN(c2ccccc2NC(=O)Nc2cccc(C3CCCN(c4ncnc5[nH]ccc45)C3)c2)C1 (stereo partly drawn) [compound 176],–,100 to 999 nM
CCC(CC)CNC(=O)Nc1cccc(C2CCCN(c3ncnc4[nH]ccc34)C2)c1 (stereo not drawn) [compound 180],–,100 to 999 nM
O=C(Nc1cccc(C2CCCN(c3ncnc4[nH]ccc34)C2)c1)Nc1ccccc1F (stereo not drawn) [compound 182],–,1000 to 10000 nM
O=C(Nc1cccc(F)c1)Nc1cccc(C2CCCN(c3ncnc4[nH]ccc34)C2)c1 (stereo not drawn) [compound 183],–,1000 to 10000 nM
O=C(NCC1(O)CCCCC1)Nc1cccc(C2CCCN(c3ncnc4[nH]ccc34)C2)c1 (stereo not drawn) [compound 184],–,1000 to 10000 nM
O=C(Nc1ccc(F)cc1)Nc1cccc(C2CCCN(c3ncnc4[nH]ccc34)C2)c1 (stereo not drawn) [compound 185],–,1000 to 10000 nM
CC(C)CCNC(=O)Nc1cccc(C2CCCN(c3ncnc4[nH]ccc34)C2)c1 (stereo not drawn) [compound 186],–,1000 to 10000 nM
COc1cccc(NC(=O)Nc2cccc(C3CCCN(c4ncnc5[nH]ccc45)C3)c2)c1 (stereo not drawn) [compound 187],–,1000 to 10000 nM
C[C@H]1CCCN1c1ccccc1NC(=O)Nc1cccc(C2CCCN(c3ncnc4[nH]ccc34)C2)c1 (stereo partly drawn) [compound 188],–,1000 to 10000 nM
CC(C)(C)c1ccccc1NC(=O)Nc1cccc([C@@H]2CCCN(c3ncnc4[nH]ccc34)C2)c1 [compound 189],–,1000 to 10000 nM
Cc1ccnc(Cl)c1NC(=O)Nc1cccc(C2CCCN(c3ncnc4[nH]ccc34)C2)c1 (stereo not drawn) [compound 190],–,1000 to 10000 nM
O=C(Nc1cccc(C2CCCN(c3ncnc4[nH]ccc34)C2)c1)Nc1ccccc1OC(F)F (stereo not drawn) [compound 191],–,1000 to 10000 nM
CN(C)[C@H]1CCN(c2ccccc2NC(=O)Nc2cccc(C3CCCN(c4ncnc5[nH]ccc45)C3)c2)C1 (stereo partly drawn) [compound 192],–,1000 to 10000 nM
O=C(Nc1cccc(C2CCCN(c3ncnc4[nH]ccc34)C2)c1)NC1CCCC1 (stereo not drawn) [compound 193],–,1000 to 10000 nM
O=C(Nc1cccc(C2CCCN(c3ncnc4[nH]ccc34)C2)c1)Nc1c(F)cccc1C(F)(F)F (stereo not drawn) [compound 194],–,1000 to 10000 nM
CC(C)(O)c1ccccc1NC(=O)Nc1cccc(C2CCCN(c3ncnc4[nH]ccc34)C2)c1 (stereo not drawn) [compound 195],–,1000 to 10000 nM
CC(C)(C)CNC(=O)Nc1cccc(C2CCCN(c3ncnc4[nH]ccc34)C2)c1 (stereo not drawn) [compound 196],–,1000 to 10000 nM

Compound,IC50 [1],IC50
O=C(Nc1cccc(C2CCCN(c3ncnc4[nH]ccc34)C2)c1)Nc1cccnc1F (stereo not drawn) [compound 197],–,1000 to 10000 nM
O=C(Nc1cccc(C2CCCN(c3ncnc4[nH]ccc34)C2)c1)Nc1cccnc1O (stereo not drawn) [compound 198],–,1000 to 10000 nM
O=C(NC[C@H]1CCCC[C@@H]1O)Nc1cccc(C2CCCN(c3ncnc4[nH]ccc34)C2)c1 (stereo partly drawn) [compound 199],–,1000 to 10000 nM
Cc1ccnc(C)c1NC(=O)Nc1cccc(C2CCCN(c3ncnc4[nH]ccc34)C2)c1 (stereo not drawn) [compound 200],–,1000 to 10000 nM
COc1ccc(NC(=O)Nc2cccc(C3CCCN(c4ncnc5[nH]ccc45)C3)c2)cc1 (stereo not drawn) [compound 201],–,1000 to 10000 nM
O=C(Nc1cccc(C2CCCN(c3ncnc4[nH]ccc34)C2)c1)Nc1cccnc1Cl (stereo not drawn) [compound 202],–,1000 to 10000 nM
O=C(Nc1cccc(C2CCCN(c3ncnc4[nH]ccc34)C2)c1)N[C@H](CO)C1CCCCC1 (stereo partly drawn) [compound 203],–,1000 to 10000 nM
O=C(Nc1cccc(C2CCCN(c3ncnc4[nH]ccc34)C2)c1)NC1CCC1 (stereo not drawn) [compound 204],–,1000 to 10000 nM
O=C(Nc1ccccc1)N[C@@H]1CCCN(C2CCCN(c3ncnc4[nH]ccc34)C2)C1 (stereo partly drawn) [compound 205],–,1000 to 10000 nM
Nc1ncnc(N2CCCC(c3cccc(NC(=O)Nc4ccccc4)c3)C2)c1CCC(=O)O (stereo not drawn) [compound 206],–,1000 to 10000 nM
CN1CCN(c2ccccc2NC(=O)Nc2cccc(C3CCCN(c4ncnc5[nH]ccc45)C3)c2)CC1 (stereo not drawn) [compound 209],–,1000 to 10000 nM
CN(C)[C@@H]1CCN(c2ccccc2NC(=O)Nc2cccc(C3CCCN(c4ncnc5[nH]ccc45)C3)c2)C1 (stereo partly drawn) [compound 210],–,1000 to 10000 nM
O=C(Nc1cccc(C2CCCN(c3ncnc4[nH]ccc34)C2)c1)Nc1cccc2cc[nH]c12 (stereo not drawn) [compound 211],–,1000 to 10000 nM
CC(C)CNC(=O)Nc1cccc(C2CCCN(c3ncnc4[nH]ccc34)C2)c1 (stereo not drawn) [compound 212],–,1000 to 10000 nM
O=C(Nc1cccc(C2CCCN(c3ncnc4[nH]ccc34)C2)c1)N[C@@H](CO)C1CCCCC1 (stereo partly drawn) [compound 213],–,1000 to 10000 nM
O=C(NCC1COCCO1)Nc1cccc(C2CCCN(c3ncnc4[nH]ccc34)C2)c1 (stereo not drawn) [compound 214],–,1000 to 10000 nM
COc1ncccc1NC(=O)Nc1cccc(C2CCCN(c3ncnc4[nH]ccc34)C2)c1 (stereo not drawn) [compound 215],–,1000 to 10000 nM
O=C(NCc1cccc(C2CCCN(c3ncnc4[nH]ccc34)C2)c1)Nc1ccccc1 (stereo not drawn) [compound 216],–,1000 to 10000 nM
O=C(NCC1CCCCCC1)Nc1cccc(C2CCCN(c3ncnc4[nH]ccc34)C2)c1 (stereo not drawn) [compound 217],–,1000 to 10000 nM
O=C(NC[C@H]1CCCC[C@H]1O)Nc1cccc(C2CCCN(c3ncnc4[nH]ccc34)C2)c1 (stereo partly drawn) [compound 218],–,1000 to 10000 nM
O=C(NCc1ccccc1)Nc1cccc(C2CCCN(c3ncnc4[nH]ccc34)C2)c1 (stereo not drawn) [compound 219],–,1000 to 10000 nM
O=C(Nc1ccccc1)N[C@@H]1CCN(C2CCCN(c3ncnc4[nH]ccc34)C2)C1 (stereo partly drawn) [compound 220],–,1000 to 10000 nM
CCOC(=O)/C=C/c1c(N)ncnc1N1CCCC(c2cccc(NC(=O)Nc3ccccc3)c2)C1 (stereo not drawn) [compound 221],> 10000 nM,–
O=C(Nc1cccc(C2CCCN(c3ncnc4[nH]ccc34)C2)c1)Nc1ccncc1Cl (stereo not drawn) [compound 222],> 10000 nM,–

# Source: patent US9790229B2, “Bruton's tyrosine kinase inhibitors” (priority 2009, dated 2017)
